Measurements taken from publication PMC10447463, “Data-mining unveils structure–property–activity correlation of viral infectivity enhancing self-assembling peptides” (Nature Communications, 2023).
Like-named read-outs stand apart in the source and are kept apart here.

Legend:
[1] = system: HIV-1 infection of TZM-bl cells; assay: HIV-1 infectivity enhancement assay, β-galactosidase luminescence; type: cell-based; settings: for Rel-EFC / Log10 Infection Rel EFC: 1.3 µM peptide; for Rel-EFC: infection relative to EF-C (QCKIKQIINMWQ = 1); for Log10 Infection Rel EFC: log10 of infection relative to EF-C; for Log Infectivity: Log10 infection relative to EF-C, TZM-bl cells, asymmetric std dev errors; for Log10 Infection Rel EF-C: HIV-1 infection of TZM-bl cells; for Abs. Inf.: absolute infection signal, HIV-1 on TZM-bl cells, β-galactosidase luminescence; for Log10 Inf. rel. to EF-C: log10 of HIV-1 infection of TZM-bl cells relative to EF-C (EF-C = 0); for Log10 of Rel to EFC (Feb2021): Log10 of infection relative to EF-C, all peptides of FigS16
[2] = Turbidity, derived count rate of scattered light; type: physicochemical; settings: for Count Rate: derived count rate of scattered light (turbidity); for Log10 Count Rate: turbidity, derived count rate of scattered light, data of Figure 2D
[3] = type: physicochemical; settings: for ThT Cat. / ThT-Fluorescence (categorical): ThT-active if fluorescence at least twice the control
How it was run: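 Preformed peptide fibrils (1 mg/mL) mixed with 50 µM ThT in PBS, 15 min at RT, fluorescence ex 440/em 488 nm versus PBS blank, triplicates. Zeta potential: peptides at 1 mg/mL in PBS pH 7.4, aged 1 d at RT, diluted in 1 mM KCl, Smoluchowski from electrophoretic mobility.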

[4] = Fig. S7 panel A (plotted against β-sheet content)
[5] = Fig. S7 panel B (plotted against CR), rounded to two decimals
[6] = Log10 of infection rate relative to EF-C, Figure 3A source data
[7] = infection rate relative to EF-C, log10, data of Figure 2D
[8] = infection rate relative to EF-C, log10, source data of Figure 2C

| Substance | Rel-EFC [1] | Log10 Infection Rel EFC [1] | Log Infectivity [1, 4] | Log Infectivity [1, 5] | Log10 Infection Rel EF-C [1, 6] | Log10 Infection Rel EF-C [1, 7] | Log10 Infection Rel EF-C [1, 8] | Abs. Inf. [1] | Log10 Inf. rel. to EF-C [1] | Count Rate [2] | Log10 Count Rate [2] | Tht category (> 2 to blank = +) ([3]; Fig S10 panel D) | ThT Cat. ([3]; Fig S10 panel E) | Tht category (> 2 to blank = +) ([3]; FigS12 panel A) | ThT Cat, ([3]; FigS12 panel B) | ThT Cat, ([3]; ThT category, 1 if Rel. ThT >2) | ThT Cat. ([3]; ThT category, 1 if Rel. ThT >2) | ThT Cat. / ThT-Fluorescence (categorical) [3] | Log10 of Rel to EFC (Feb2021) [1] | ThT Cat. ([3]; ThT fluorescence category, 1 if Rel. ThT >2) |
| --- | --- | --- | --- | --- | --- | --- | --- | --- | --- | --- | --- | --- | --- | --- | --- | --- | --- | --- | --- | --- |
| MKFKFQF | 0,06 | -1,2 | -1.196 | -1.2 | -1.2 | -1.196 | -1.196 | 1427 | -1.196 | 124 | 2.0933 | 0 (ThT-inactive (N-Fold <2)) | 0 (ThT-inactive (N-Fold <2)) | 0 (ThT-inactive (N-Fold <2)) | 0 (ThT-inactive (N-Fold <2)) | 0 (ThT-inactive (N-Fold <2)) | 0 (ThT-inactive (N-Fold <2)) | 0 (ThT-inactive (N-Fold <2)) | – | – |
| MKFM | 0,02 | -1,76 | -1.756 | – | -1.76 | -1.756 | -1.756 | 383.3 | -1.756 | 130.8 | 2.1165 | 0 (ThT-inactive (N-Fold <2)) | – | 0 (ThT-inactive (N-Fold <2)) | 0 (ThT-inactive (N-Fold <2)) | 0 (ThT-inactive (N-Fold <2)) | 0 (ThT-inactive (N-Fold <2)) | 0 (ThT-inactive (N-Fold <2)) | – | – |
| NMWQKAKAQA | 0,04 | -1,38 | -1.376 | – | -1.38 | -1.376 | -1.376 | 1137 | -1.376 | 242.2 | 2.384 | 1 (ThT. Cat is 1, if Rel. ThT >2) | – | 1 (ThT. Cat is 1, if Rel. ThT >2) | 1 (ThT. Cat is 1, if Rel. ThT >2) | 1 (ThT. Cat is 1, if Rel. ThT >2) | 1 (ThT. Cat is 1, if Rel. ThT >2) | 1 (ThT. Cat is 1, if Rel. ThT >2) | – | – |
| NMWQKFKFQF | 0,27 | -0,57 | -0.5672 | – | -0.57 | -0.5672 | -0.5672 | 7323 | -0.5672 | 14045.43333 | 4.148 | 0 (ThT-inactive (N-Fold <2)) | – | – | – | 0 (ThT-inactive (N-Fold <2)) | 0 (ThT-inactive (N-Fold <2)) | 0 (ThT-inactive (N-Fold <2)) | -0.57 | – |
| NMWQKIKIQI | 0,21 | -0,69 | -0.6877 | – | -0.69 | -0.6877 | -0.6877 | – | -0.6877 | 10024.06667 | 4.001 | 1 (ThT. Cat is 1, if Rel. ThT >2) | – | – | – | 1 (ThT. Cat is 1, if Rel. ThT >2) | – | 1 (ThT. Cat is 1, if Rel. ThT >2) | -0.69 | 1 (ThT. Cat is 1, if Rel. ThT >2) |
| NMWQKIKQII | 0,03 | -1,6 | -1.5971 | – | -1.6 | -1.5971 | -1.5971 | 283.3 | -1.5971 | 982.4 | 2.992 | 0 (ThT-inactive (N-Fold <2)) | – | 0 (ThT-inactive (N-Fold <2)) | 0 (ThT-inactive (N-Fold <2)) | 0 (ThT-inactive (N-Fold <2)) | 0 (ThT-inactive (N-Fold <2)) | 0 (ThT-inactive (N-Fold <2)) | – | – |
| NMWQKVGTPL | 0,02 | -1,61 | -1.607 | – | -1.61 | -1.607 | -1.607 | 276.7 | -1.607 | 26.97 | 1.431 | 1 (ThT. Cat is 1, if Rel. ThT >2) | – | 1 (ThT. Cat is 1, if Rel. ThT >2) | 1 (ThT. Cat is 1, if Rel. ThT >2) | 1 (ThT. Cat is 1, if Rel. ThT >2) | 1 (ThT. Cat is 1, if Rel. ThT >2) | 1 (ThT. Cat is 1, if Rel. ThT >2) | – | – |
| PPFHPPPFHP | 0,02 | -1,75 | -1.751 | – | -1.75 | -1.751 | -1.751 | 263.3 | -1.751 | 59.13 | 1.772 | 0 (ThT-inactive (N-Fold <2)) | – | 0 (ThT-inactive (N-Fold <2)) | 0 (ThT-inactive (N-Fold <2)) | 0 (ThT-inactive (N-Fold <2)) | 0 (ThT-inactive (N-Fold <2)) | 0 (ThT-inactive (N-Fold <2)) | – | – |
| QCKAKAQA | 0,03 | -1,6 | -1.598 | – | -1.6 | -1.598 | -1.598 | 806.7 | -1.598 | 1319.1 | 3.12 | 0 (ThT-inactive (N-Fold <2)) | – | 0 (ThT-inactive (N-Fold <2)) | 0 (ThT-inactive (N-Fold <2)) | 0 (ThT-inactive (N-Fold <2)) | 0 (ThT-inactive (N-Fold <2)) | 0 (ThT-inactive (N-Fold <2)) | – | – |
| QCKFKFQF | 0,77 | -0,12 | -0.1152 | – | -0.12 | -0.1152 | -0.1152 | 20303.33333 | -0.1152 | 2669 | 3.426 | 1 (ThT. Cat is 1, if Rel. ThT >2) | – | – | – | 1 (ThT. Cat is 1, if Rel. ThT >2) | 1 (ThT. Cat is 1, if Rel. ThT >2) | 1 (ThT. Cat is 1, if Rel. ThT >2) | -0.12 | – |
| QCKFKFQFNM | 0,51 | -0,29 | -0.2906 | -0.29 | -0.29 | -0.2906 | -0.2906 | 16353.33333 | -0.2906 | 3669.6 | 3.565 | 1 (ThT. Cat is 1, if Rel. ThT >2) | 1 (ThT. Cat is 1, if Rel. ThT >2) | – | – | 1 (ThT. Cat is 1, if Rel. ThT >2) | 1 (ThT. Cat is 1, if Rel. ThT >2) | 1 (ThT. Cat is 1, if Rel. ThT >2) | -0.29 | – |
| QCKFKFQFNMWQ | 0,62 | -0,21 | -0.2086 | -0.21 | -0.21 | -0.2086 | -0.2086 | 19753.33333 | -0.2086 | 1208 | 3.082 | 0 (ThT-inactive (N-Fold <2)) | – | – | – | 0 (ThT-inactive (N-Fold <2)) | 0 (ThT-inactive (N-Fold <2)) | 0 (ThT-inactive (N-Fold <2)) | -0.21 | – |
| QCKIKIQI | 0,11 | -0,95 | -0.9508 | – | -0.95 | -0.9508 | -0.9508 | 3577 | -0.9508 | 12426.83333 | 4.094 | 1 (ThT. Cat is 1, if Rel. ThT >2) | – | – | – | 1 (ThT. Cat is 1, if Rel. ThT >2) | 1 (ThT. Cat is 1, if Rel. ThT >2) | 1 (ThT. Cat is 1, if Rel. ThT >2) | -0.95 | – |
